# Tests used:
# [1] = molecular target: T1, D2 (Homo sapiens, UniProt P14416); experiment: PDSP receptor binding, D2; settings: PDSP primary screen at 10 µM
# T1 construct: purchased NIMH PDSP (Psychoactive Drug Screening Program, Roth lab, Case Western Reserve)
# [2] = molecular target: T2, 5ht6 (Homo sapiens, UniProt P50406); experiment: PDSP receptor binding, 5ht6; settings: PDSP primary screen at 10 µM
# T2 construct: purchased NIMH PDSP (Psychoactive Drug Screening Program, Roth lab, Case Western Reserve)
# [3] = molecular target: α5β3γ2 BzR/GABA(A); settings: text b7; read-out: Ki at the α5β3γ2 subtype; cited from earlier work
# [4] = tested on: Imidaz oline; experiment: PDSP receptor binding, Imidazoline; settings: PDSP primary screen at 10 µM
# [5] = tested on: C57BL/6J mice; type: in vivo
# Text: Figure 3 XLi-093 (4) effects on cognition enhancement by Wenger et al. (data on statistical significance not shown, unpublished results). Effects of 4 on cognition from the mean delay achieved by C57BL/6J mice titrating delayed matching-to-position schedule.
# [6] = molecular target: T3, α2C (Homo sapiens, UniProt P18825); experiment: PDSP receptor binding, α2C; settings: PDSP primary screen at 10 µM
# T3 construct: purchased NIMH PDSP (Psychoactive Drug Screening Program, Roth lab, Case Western Reserve)
# [7] = molecular target: KOR (Homo sapiens, UniProt P41145); experiment: PDSP receptor binding, KOR; settings: Case Western Reserve University, read-out: KOR Ki (secondary binding)
# [8] = molecular target: T4, MOR (Homo sapiens, UniProt P35372); experiment: PDSP receptor binding, MOR; settings: PDSP primary screen at 10 µM
# T4 construct: purchased NIMH PDSP (Psychoactive Drug Screening Program, Roth lab, Case Western Reserve)
# [9] = molecular target: T5, Beta1 (Homo sapiens, UniProt P08588); experiment: PDSP receptor binding, Beta1; settings: PDSP primary screen at 10 µM
# T5 construct: purchased NIMH PDSP (Psychoactive Drug Screening Program, Roth lab, Case Western Reserve)
# [10] = molecular target: α5β3γ2 GABAA/BzR (Homo sapiens, UniProt P18507+P31644); experiment: Competition binding to HEK cell membranes, α5β3γ2; set-up: expressed in transfected cells; settings: Ki α5
# [11] = tested on: NMDA; experiment: PDSP receptor binding, NMDA; settings: PDSP primary screen at 10 µM
# [12] = molecular target: T6, D3 (Homo sapiens, UniProt P35462); experiment: PDSP receptor binding, D3; settings: PDSP primary screen at 10 µM
# T6 construct: purchased NIMH PDSP (Psychoactive Drug Screening Program, Roth lab, Case Western Reserve)
# [13] = molecular target: T7, 5ht1a (Homo sapiens, UniProt P08908); experiment: PDSP receptor binding, 5ht1a; settings: PDSP primary screen at 10 µM
# T7 construct: purchased NIMH PDSP (Psychoactive Drug Screening Program, Roth lab, Case Western Reserve)
# [14] = PDSP receptor binding, β1B; settings: PDSP primary screen at 10 µM
# [15] = molecular target: α3β3γ2 GABAA/BzR (Homo sapiens, UniProt P18507+P34903); experiment: Competition binding to HEK cell membranes, α3β3γ2; set-up: expressed in transfected cells; settings: Ki α3
# [16] = tested on: α1β3γ2 GABAA receptor; settings: cited from earlier work
# [17] = molecular target: T8, α5β3γ2 GABAA receptor (Homo sapiens, UniProt P18507+P31644); settings: cited from earlier work
# T8 construct: expressed in transfected cells; host or cells: Xenopus oocytes
# [18] = molecular target: T9, M2 (Homo sapiens, UniProt P08172); experiment: PDSP receptor binding, M2; settings: PDSP primary screen at 10 µM
# T9 construct: purchased NIMH PDSP (Psychoactive Drug Screening Program, Roth lab, Case Western Reserve)
# [19] = molecular target: T10, 5ht1e (Homo sapiens, UniProt P28566); experiment: PDSP receptor binding, 5ht1e; settings: PDSP primary screen at 10 µM
# T10 construct: purchased NIMH PDSP (Psychoactive Drug Screening Program, Roth lab, Case Western Reserve)
# [20] = molecular target: T11, H4 (Homo sapiens, UniProt Q9H3N8); experiment: PDSP receptor binding, H4; settings: PDSP primary screen at 10 µM
# T11 construct: purchased NIMH PDSP (Psychoactive Drug Screening Program, Roth lab, Case Western Reserve)
# [21] = molecular target: T12, α2B (Homo sapiens, UniProt P18089); experiment: PDSP receptor binding, α2B; settings: PDSP primary screen at 10 µM
# T12 construct: purchased NIMH PDSP (Psychoactive Drug Screening Program, Roth lab, Case Western Reserve)
# [22] = molecular target: T13, DOR (Homo sapiens, UniProt P41143); experiment: PDSP receptor binding, DOR; settings: PDSP primary screen at 10 µM
# T13 construct: purchased NIMH PDSP (Psychoactive Drug Screening Program, Roth lab, Case Western Reserve)
# [23] = molecular target: T14, α4β3γ2 GABAA/BzR (Homo sapiens, UniProt P18507+P48169); experiment: biochemical; type: binding
# T14 construct: expressed in transfected cells; host or cells: LTK cells (given for XLi-093 only)
smiles,measurement,setting,value
"C#Cc1ccc2c(c1)C(=O)N(C)Cc1c(C(=O)OCCCOC(=O)c3ncn4c3CN(C)C(=O)c3cc(C#C)ccc3-4)ncn1-2 [XLi-093 (4), 1,3-Bis(8-acetyleno-5,6-dihydro-5-methyl-6-oxo-4H-imidazo[1,5a][1,4]benzodiazepine-3-carboxy) propyl diester]",D2 binding,[1],∗ (“∗” indicates “primary missed” (<50% inhibition at 10 µM))
same,5ht6 binding,[2],∗ (“∗” indicates “primary missed” (<50% inhibition at 10 µM))
same,Ki,[3],15 nM
same,Imidaz oline binding,[4],∗ (“∗” indicates “primary missed” (<50% inhibition at 10 µM))
same,performance (mean delay achieved),"[5]; C57BL/6J mice, preliminary data, unpublished results (Wenger et al.)",enhances performance
same,crossing of the blood brain barrier,[5]; inferred from the cognition effect in mice,does cross the blood brain barrier
same,α2C binding,[6],∗ (“∗” indicates “primary missed” (<50% inhibition at 10 µM))
same,Ki,[7],2020 nM
same,MOR binding,[8],∗ (“∗” indicates “primary missed” (<50% inhibition at 10 µM))
same,Beta1 binding,[9],∗ (“∗” indicates “primary missed” (<50% inhibition at 10 µM))
same,Ki,[10],15 nM
same,NMDA binding,[11],∗ (“∗” indicates “primary missed” (<50% inhibition at 10 µM))
same,D3 binding,[12],∗ (“∗” indicates “primary missed” (<50% inhibition at 10 µM))
same,5ht1a binding,[13],∗ (“∗” indicates “primary missed” (<50% inhibition at 10 µM))
same,β1B binding,[14],∗ (“∗” indicates “primary missed” (<50% inhibition at 10 µM))
same,Ki,[15],858 nM
same,"modulation of GABA induced chloride flux, α1β3γ2",[16]; at 1 μM,did not modulate
same,"influence on benzodiazepine (Valium) stimulation of GABA-induced current, α1β3γ2",[16],barely influenced
same,"modulation of GABA induced chloride flux, α5β3γ2",[17]; at 1 μM,very slightly inhibited
same,"influence on benzodiazepine (Valium) stimulation of GABA-induced current, α5β3γ2",[17],shifted the diazepam dose response curve to the right
same,inhibition of diazepam-stimulated currents in α5β3γ2 receptors,[17],dose dependently and completely inhibit
same,M2 binding,[18],∗ (“∗” indicates “primary missed” (<50% inhibition at 10 µM))
same,5ht1e binding,[19],∗ (“∗” indicates “primary missed” (<50% inhibition at 10 µM))
same,H4 binding,[20],∗ (“∗” indicates “primary missed” (<50% inhibition at 10 µM))
same,α2B binding,[21],∗ (“∗” indicates “primary missed” (<50% inhibition at 10 µM))
same,DOR binding,[22],∗ (“∗” indicates “primary missed” (<50% inhibition at 10 µM))
same,Ki,[23],1550 nM
